Assay results as given in the supplement of paper PMC10307832.

Columns and labels:
Assay in all cases: relative viability (nuclei count vs DMSO), 5 days (fraction); higher = more cells survive
[1] = compound: CC1=CC(=C(N1C2=CC=C(C=C2)Cl)C)C(=O)CN3CCCCC3 [IU1-47] + COc1cccc2cc(-c3nc([C@H]4CC[C@H](C(=O)O)CC4)n4ncnc(N)c34)[nH]c12 [OSI-027] (partner 0.5 µM)
Procedure, shortened: (§1)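 Dosing by pin tool came one day after lung cancer cell lines were seeded in 1536-well plates, using either one drug or a fixed anchor-drug dose plus five library-drug doses (not always all listed) in √10 steps. After 5 days, nuclei were counted on 4× images. Relative viability is treated-well nuclei count divided by vehicle-well nuclei count, and values are medians of duplicate plates.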

[2] = compound: CC1=CC(=C(N1C2=CC=C(C=C2)Cl)C)C(=O)CN3CCCCC3 [IU1-47] + CS(=O)(=O)N1CCN(Cc2cc3nc(-c4cccc5[nH]ncc45)nc(N4CCOCC4)c3s2)CC1 [Pictilisib] (partner 1 µM)
Procedure, shortened: as §1

[3] = compound: CC1=CC(=C(N1C2=CC=C(C=C2)Cl)C)C(=O)CN3CCCCC3 [IU1-47] + C[C@]1(O)C[C@@H](c2nc(-c3ccc4ccc(-c5ccccc5)nc4c3)c3c(N)nccn32)C1 [Linsitinib] (partner 1 µM)
Procedure, shortened: as §1

[4] = compound: CC1=CC(=C(N1C2=CC=C(C=C2)Cl)C)C(=O)CN3CCCCC3 [IU1-47] + Cc1cc(Nc2cc(N3CCN(C)CC3)nc(Sc3ccc(NC(=O)C4CC4)cc3)n2)n[nH]1 [Tozasertib] (partner 0.1 µM)
Procedure, shortened: as §1

Row | Cell Line | relative viability ([1]; first compound 0.08 µM) | relative viability ([1]; first compound 0.253 µM) | relative viability ([1]; first compound 0.8 µM) | relative viability ([1]; first compound 2.53 µM) | relative viability ([1]; first compound 8 µM) | relative viability ([2]; first compound 0.08 µM) | relative viability ([2]; first compound 0.253 µM) | relative viability ([2]; first compound 0.8 µM) | relative viability ([2]; first compound 2.53 µM) | relative viability ([2]; first compound 8 µM) | relative viability ([3]; first compound 0.08 µM) | relative viability ([3]; first compound 0.253 µM) | relative viability ([3]; first compound 0.8 µM) | relative viability ([3]; first compound 8 µM) | relative viability ([4]; first compound 0.08 µM) | relative viability ([4]; first compound 0.253 µM) | relative viability ([4]; first compound 0.8 µM) | relative viability ([4]; first compound 2.53 µM) | relative viability ([4]; first compound 8 µM) | relative viability ([3]; first compound 2.53 µM)
1 | HCC-366 | 1.07 | 0.934 | 1.17 | 0.692 | 1.27 | 0.215 | 0.115 | 0.149 | 0.137 | 0.145 | 0.698 | 0.643 | 0.951 | 0.567 | 0.15 | 0.217 | 0.132 | 0.154 | 0.112 | 
2 | HCC-827 | 0.944 | 0.895 | 0.85 | 0.889 | 0.543 | 1.27 | 1.1 | 1.14 | 0.957 | 1.1 | 0.99 | 0.92 | 0.941 | 0.963 | 0.458 | 0.424 | 0.449 | 0.409 | 0.383 | 1.01
3 | HOP-62 | 0.918 | 0.93 | 0.901 | 0.771 | 0.712 | 0.966 | 0.891 | 0.818 | 0.494 | 0.524 | 0.98 | 1.04 | 0.805 | 0.886 | 0.351 | 0.404 | 0.384 | 0.412 | 0.354 | 0.677
4 | IA-LM |  |  |  |  |  | 0.333 | 0.374 | 0.306 | 0.394 | 0.348 | 0.526 | 0.407 | 0.655 | 0.604 |  |  |  |  |  | 0.741
5 | LC-2-ad | 0.86 | 0.81 | 0.75 | 0.546 | 0.787 | 0.428 | 0.509 | 0.427 | 0.423 | 0.45 | 0.863 | 0.91 | 0.845 | 0.918 | 0.465 | 0.396 | 0.465 | 0.444 | 0.377 | 0.853
6 | LCLC-97TM1 | 0.62 | 0.551 | 0.531 | 0.583 | 0.513 | 0.194 | 0.258 | 0.204 |  | 0.165 | 0.177 | 0.228 | 0.168 | 0.175 | 0.217 | 0.235 | 0.251 | 0.358 | 0.198 | 
7 | LCLC-103H | 0.508 | 0.492 | 0.472 | 0.484 | 0.416 | 0.586 | 0.566 | 0.624 | 0.509 | 0.639 | 1.07 | 1.07 | 1.18 | 1.3 | 0.576 | 0.586 | 0.531 | 0.503 | 0.451 | 1.07
8 | LK-2 | 0.219 | 0.199 | 0.184 | 0.188 | 0.184 | 0.606 | 0.614 | 0.615 | 0.412 | 0.474 | 0.742 | 0.697 | 0.592 | 0.416 | 0.163 | 0.168 | 0.155 | 0.168 | 0.166 | 0.335
9 | LOU-NH91 | 0.798 | 0.776 | 0.728 | 0.726 | 0.685 | 0.502 | 0.529 | 0.429 | 0.512 | 0.51 | 1.07 | 1.06 | 0.939 | 0.868 | 0.638 | 0.693 | 0.702 | 0.737 | 0.592 | 0.907
10 | LU99A | 0.246 | 0.303 | 0.337 | 0.298 | 0.317 | 0.35 | 0.337 | 0.275 | 0.312 | 0.298 | 0.538 | 0.511 | 0.656 | 0.54 | 0.283 | 0.266 | 0.282 | 0.314 | 0.231 | 0.602
11 | NCI-H522 | 0.751 | 0.592 | 0.56 | 0.572 | 0.619 |  |  |  |  |  |  |  |  |  | 0.52 | 0.523 | 0.516 | 0.489 | 0.519 | 
12 | NCI-H1299 |  |  |  |  |  | 0.893 | 0.881 | 0.749 | 1.05 | 0.911 | 0.943 | 0.951 | 1.05 | 0.975 |  |  |  |  |  | 1.01
13 | NCI-H1563 | 0.809 | 0.782 | 0.785 | 0.757 | 0.663 | 0.69 | 0.672 | 0.663 | 0.627 | 0.732 | 1.22 | 1.05 | 1.19 | 1.14 |  |  |  |  |  | 1.07
14 | NCI-H1623 | 0.452 | 0.451 | 0.449 | 0.434 | 0.391 |  |  |  |  |  |  |  |  |  | 0.494 | 0.43 | 0.428 | 0.451 | 0.428 | 
15 | NCI-H1648 | 0.264 | 0.295 | 0.251 | 0.266 | 0.277 |  |  |  |  |  |  |  |  |  | 0.518 | 0.569 | 0.476 | 0.338 | 0.43 | 
16 | NCI-H1650 | 0.502 | 0.438 | 0.645 | 0.521 | 0.412 | 0.634 | 0.587 | 0.682 | 0.295 | 0.27 |  |  |  |  | 0.399 | 0.489 | 0.363 | 0.382 | 0.264 | 
17 | NCI-H1703 |  |  |  |  |  | 0.254 | 0.255 | 0.218 | 0.32 | 0.25 | 0.516 | 0.707 | 0.416 | 0.886 |  |  |  |  |  | 0.671
18 | NCI-H1792 | 0.816 | 0.771 | 0.879 | 0.566 | 0.691 | 0.26 | 0.318 | 0.253 | 0.165 | 0.286 | 0.615 | 0.581 | 0.449 | 0.336 |  |  |  |  |  | 0.299
19 | NCI-H2170 | 0.865 | 0.725 | 0.645 | 0.722 | 0.727 | 0.309 | 0.308 | 0.287 | 0.305 | 0.331 |  |  |  |  | 0.714 | 0.786 | 0.762 | 0.892 | 0.676 | 
20 | NCI-H2342 | 0.668 | 0.69 | 0.578 | 0.517 | 0.619 |  |  |  |  |  |  |  |  |  | 0.493 | 0.608 | 0.602 | 0.512 | 0.594 | 
21 | SW 900 | 0.508 | 0.45 | 0.677 | 0.61 | 0.414 |  |  |  |  |  |  |  |  |  | 0.512 | 0.54 | 0.615 | 0.439 | 0.469 | 
